This note sets out measurements from US6410558B1, “Fungicides for the control of take-all disease of plants” (Monsanto Technology LLC, priority 1991, dated 2002).

Broadly, the inhibition is the change of the read-out against control, counted positive when it falls.

Test [1] has as its system Gaeumannomyces graminis var. tritici (Ggt). Kind of test: In vitro Assay: mycelial growth of Ggt on minimal media agar plates containing test compound. The test is classed as cell-based. Conditions: dark, 19-20° C., 4 to 5 days, diameter of mycelial growth; for In vitro (ppm) 0.1, Percent Inhibition / inhibition at 0.1 ppm: 0.1 ppm in minimal media agar; for In vitro (ppm) 1, Percent Inhibition / inhibition at 1 ppm: 1 ppm in minimal media agar; for In vitro (ppm) 10, Percent Inhibition / inhibition at 10 ppm: 10 ppm in minimal media agar; for inhibition at 0.1 ppm / inhibition at 1 ppm / inhibition at 10 ppm: Gaeumannomyces graminis; for inhibition at 0.1 ppm: read-out: In vitro (ppm) 0.1, Percent Inhibition; for inhibition at 1 ppm: read-out: In vitro (ppm) 1, Percent Inhibition; for inhibition at 10 ppm: read-out: In vitro (ppm) 10, Percent Inhibition. The gist of the method: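 Ggt mycelial diameter read after 4 to 5 days in darkness at 19-20° C, from three 4-mm plugs placed on Czapek Dox minimal agar containing test compound delivered in acetone. Inhibition expressed as percent versus untreated plates, plug size (4 mm) subtracted from both.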

Another test has as its system Ggt. As to the kind of experiment: In vivo Assay: control of Ggt on wheat grown in pots of Ggt-infested soil, root disease rating. On the set-up: species or system Gaeumannomyces graminis var. tritici. Conditions: 0.5 mg active ingredient per pot, 'Bergen' or 'Anza' wheat in Ggt-infested soil, after four weeks, vs untreated control; for pest or weed control at 0.5 mg/pot: Gaeumannomyces graminis, 672 h, read-out: In vivo, percent disease control. How it is done:
Compounds are tested for control of Ggt on ‘Bergen’ or ‘Anza’ varieties of wheat grown in 3-inch square pots containing soil infested with Ggt. The infestation is accomplished by mixing the soil with an inoculum prepared by growing Ggt on ¼ strength potato dextrose agar (4.875 g potato dextrose agar, 5.0 g Bacto agar, 500 mL distilled, deionized water) in plates and using plugs from the plates to infest sterile oats (400 cc whole oats, 350 mL deionized water, autoclaved). After a one-month incubation period at room temperature, the oats are dried and mixed with the soil at 4% v/v. Four wheat seeds are placed on top of the soil in each pot. The test compounds are prepared as an 1:9 acetone/water v/v solution containing 0.18% Tween® 20 to provide a treatment rate of 0.5 mg active ingredient per pot, treated with 3 mL test solution per pot. Five pots are used for each treatment level and the controls, which are untreated, inoculated and non-inoculated pots. After one hour drying time, the seeds are covered with more of the appropriate soil and a layer of vermiculite. The pots are placed in a growth chamber and watered each day. After four weeks, each pot is evaluated for evidence of disease by examination of the seminal roots of each plant under a dissecting microscope. A 0 to 5 rating scale having the following meanings is used:
0=no runner hyphae or lesions present
1=runner hyphae and a few small lesions present on <10% of root system
2=runner hyphae and small lesions present on 10-25% of root system
3=runner hyphae and lesions present on 25-50% of root system
4=runner hyphae and many, large, coalescing lesions on >50% of root system
5=root system and culm completely inundated with lesions and runner hyphae
From each set of five replicates a high and low score is eliminated and a replicate mean is calculated by the average of the remaining three scores. This mean score is then compared to the untreated control score and a percent disease control is calculated.

For “2-N,N-dipropyl-6-(trimethylsilyl)benzamide [Example 14]”, in test [1], the “In vitro (ppm) 0.1, Percent Inhibition” value was 7%; the “In vitro (ppm) 1, Percent Inhibition” value turned out to be 40%; the “In vitro (ppm) 10, Percent Inhibition” value is 79%. Besides, the “In vivo, percent disease control” value in the test on Ggt was 92%.
`CCN(CC)C(=O)c1c(C)ccc(F)c1[Si](C)(C)C` [Example 1, N,N-Diethyl-3-fluoro-6-methyl-2-(trimethylsilyl)benzamide]: in test [1], the inhibition at 0.1 ppm came to 6%, the inhibition at 1 ppm was 53% and the inhibition at 10 ppm was determined as 74%. Besides, the pest or weed control at 0.5 mg/pot in the test on Ggt is 91%.
Turning to `CCN(CC)C(=O)c1ccccc1[Si](C)(C)C` [Example 2, N,N-Diethyl-2-(trimethylsilyl)benzamide], in test [1], the inhibition at 0.1 ppm is 14%, the inhibition at 1 ppm turned out to be 36% and the inhibition at 10 ppm was determined as 72%. The pest or weed control at 0.5 mg/pot in the test on Ggt is 74%.
Take `CCN(CC)C(=O)c1c(C)cccc1[Si](C)(C)C` [Example 3, N,N-Diethyl-2-methyl-6-(trimethylsilyl)benzamide]: in test [1], the inhibition at 0.1 ppm amounted to 19%, the inhibition at 1 ppm stood at 58% and the inhibition at 10 ppm amounted to 75%. Besides, in the test on Ggt, the pest or weed control at 0.5 mg/pot came to 100%.
For `CCN(CC)C(=O)c1cccc(F)c1[Si](C)(C)C` [Example 4, N,N-Diethyl-3-fluoro-2-(trimethylsilyl)benzamide] the same measures were less than 0%, less than 0%, 57% and 54%.
For `CN(C(=O)c1cccc(F)c1[Si](C)(C)C)C(C)(C)C` [Example 5, N-(1,1-Dimethylethyl)-3-fluoro-N-methyl-2-(trimethylsilyl)benzamide], in test [1], the inhibition at 0.1 ppm is less than 0%, the inhibition at 1 ppm is less than 0% and the inhibition at 10 ppm amounted to 29%. The pest or weed control at 0.5 mg/pot with Ggt worked out at 24%.
For the compound `CCN(CC)C(=O)c1c(C)cccc1C(C)(C)C` [Example 6, 2-(1,1-Dimethylethyl)-N,N-diethyl-6-methylbenzamide], in test [1], the inhibition at 0.1 ppm turned out to be 7%, the inhibition at 1 ppm is 2% and the inhibition at 10 ppm stood at 47%. The pest or weed control at 0.5 mg/pot in the test with Ggt came out at 37%.
Regarding `CCN(CC)C(=O)c1c(Cl)ccc[c]1[Sn]([CH3])([CH3])[CH3]` [Example 7, 2-Chloro-N,N-diethyl-6-(trimethylstannyl)benzamide], in test [1], the “In vitro (ppm) 0.1, Percent Inhibition” value amounted to 42%; the “In vitro (ppm) 1, Percent Inhibition” value came out at 77%; the “In vitro (ppm) 10, Percent Inhibition” value turned out to be 100%. In the test on Ggt, the “In vivo, percent disease control” value came out at 93%.
Take `CCNC(=O)c1c(C)cccc1C(C)(C)C` [Example 8, 2-(1,1-Dimethylethyl)-N-ethyl-6-methylbenzamide]: in test [1], the inhibition at 0.1 ppm was 19%, the inhibition at 1 ppm came to 97% and the inhibition at 10 ppm turned out to be 100%. Also, the pest or weed control at 0.5 mg/pot with Ggt worked out at 85%.
In the case of `CCNC(=O)c1cccc(F)c1[Si](C)(C)C` [Example 12, N-Ethyl-3-fluoro-2-(trimethylsilyl)benzamide], in test [1], the inhibition at 0.1 ppm was found to be 29%, the inhibition at 1 ppm is 83% and the inhibition at 10 ppm stood at 100%. In addition, in the test on Ggt, the pest or weed control at 0.5 mg/pot was determined as 95%.
Consider `CCCN(CCC)C(=O)c1ccccc1[Si](C)(C)C` [Example 13, N,N-Dipropyl-2-(trimethylsilyl)benzamide], for which, in test [1], the inhibition at 0.1 ppm was determined as 7%, the inhibition at 1 ppm is 17% and the inhibition at 10 ppm was determined as 64%. In the test with Ggt, the pest or weed control at 0.5 mg/pot is 13%.
As for `C[Si](C)(C)c1cccc(Cl)c1C(=O)Nc1ccccc1` [Example 16, 2-Chloro-N-phenyl-6-(trimethylsilyl)-benzamide], in test [1], the inhibition at 0.1 ppm worked out at 11%, the inhibition at 1 ppm was determined as 27% and the inhibition at 10 ppm came to 76%. For the same compound, the pest or weed control at 0.5 mg/pot in the test on Ggt came to 3%.
With `CCCCCCCCNC(=O)c1c(Cl)cccc1[Si](C)(C)C` [Example 17, 2-Chloro-N-octyl-6-(trimethylsilyl)-benzamide], in test [1], the inhibition at 0.1 ppm is 59%, the inhibition at 1 ppm came out at 64% and the inhibition at 10 ppm turned out to be 64%. Besides, the pest or weed control at 0.5 mg/pot in the test on Ggt was less than 0%.
On to `CCN(C(=O)c1c(Cl)cccc1[Si](C)(C)C)C(C)C` [Example 18, 2-Chloro-N-ethyl-N-(1-methylethyl)-6-(trimethylsilyl)benzamide], for which, in test [1], the inhibition at 0.1 ppm is less than 0%, the inhibition at 1 ppm was less than 0% and the inhibition at 10 ppm worked out at 100%. The pest or weed control at 0.5 mg/pot in the test on Ggt was determined as 97%.
`CNC(=O)c1c(Cl)cccc1[Si](C)(C)C` [Example 19, 2-Chloro-N-methyl-6-(trimethylsilyl)-benzamide]: in test [1], the inhibition at 0.1 ppm was less than 0%, the inhibition at 1 ppm amounted to 7% and the inhibition at 10 ppm came to 29%. The pest or weed control at 0.5 mg/pot in the test with Ggt worked out at 38%.
As for `CCCCNC(=O)c1c(Cl)cccc1[Si](C)(C)C` [Example 20, N-Butyl-2-chloro-6-(trimethylsilyl)-benzamide], in test [1], the inhibition at 0.1 ppm was determined as 7%, the inhibition at 1 ppm is 14% and the inhibition at 10 ppm was determined as 61%. Also, in the test on Ggt, the pest or weed control at 0.5 mg/pot came out at 36%.
Consider `CCNC(=O)c1c(F)cccc1S(=O)(=O)C(C)(C)C` [Example 280, 2-[(1,1-Dimethylethyl)sulfonyl]-N-ethyl-6-fluorobenzamide], for which, in test [1], the inhibition at 0.1 ppm came out at 24%, the inhibition at 1 ppm was determined as 21% and the inhibition at 10 ppm turned out to be 38%.
With `CCN(CC)C(=O)c1c(Cl)cccc1N(C)C(C)(C)C` [Example 281, 2-Chloro-6-[(1,1-dimethylethyl)methylamino]-N,N-(diethyl)benzamide], in test [1], the “In vitro (ppm) 0.1, Percent Inhibition” value is recorded as 4%; the “In vitro (ppm) 1, Percent Inhibition” value is reported as “N (If the calculation resulted in “0” or less, as compared to the untreated control, a “N” is shown to indicate no control.)”; the “In vitro (ppm) 10, Percent Inhibition” value is reported as 43%.
In the case of `CCNC(=O)c1nc(Cl)sc1[Si](C)(C)C` [Example 282, 2-Chloro-N-ethyl-5-(trimethylsilyl)-4-thiazolecarboxamide], in test [1], the inhibition at 0.1 ppm worked out at 3%, the inhibition at 1 ppm is 15% and the inhibition at 10 ppm was found to be 78%.
For `CCNC(=O)C1=CSC(Cl)N1[Si](C)(C)C` (stereo not shown) [Example 283, 2-Chloro-N-ethyl-3-(trimethylsilyl)-4-thiazolecarboxamide] the same measures were less than 0%, 3% and 42%.
For `CCNC(=O)n1nccc1[Si](C)(C)C` [Example 284, N-Ethyl-5-(trimethylsilyl)-1H-pyrazole-1-carboxamide] the same measures were 23%, 35% and 91%.
For `CCNC(=O)c1c(Cl)cccc1C(C)(C)C` [Example 285, 2-Chloro-N-ethyl-6-(1,1-dimethylethyl)benzamide], in that order: less than 0%, 50% and 75%.
As for `CCNC(=O)c1sc(C)c(C)c1[Si](C)(C)C` [Example 286, 4,5-Dimethyl-N-ethyl-3-(trimethylsilyl)-2-thiophenecarboxamide], in test [1], the inhibition at 0.1 ppm came out at 76%, the inhibition at 1 ppm turned out to be 93% and the inhibition at 10 ppm amounted to 100%.
Turning to `CC(C)N(O)C(=O)c1sc(Cl)cc1[Si](C)(C)C` [Example 287, 5-Chloro-N-hydroxy-N-(1-methylethyl)-3-(trimethylsilyl)-2-thiophenecarboxamide], in test [1], the inhibition at 0.1 ppm came to 64%, the inhibition at 1 ppm was 71% and the inhibition at 10 ppm was determined as 78%.
For `CCNC(=O)c1cnn(C)c1[Si](C)(C)C` [Example 288, N-Ethyl-1-methyl-5-(trimethylsilyl)-1H-pyrazole-4-carboxamide], in that order: less than 0%, less than 0% and 53%.
